Where a name gives a salt, the structure may show the parent alone. Bounds are passed on as bounds.

The target of the experiment is T1, TAK1-TAB1 fusion protein (Homo sapiens, UniProt O43318).
T1 construct: purchased Carna
T1 sequence (O43318 with tags, fused parts or gaps limits assumed): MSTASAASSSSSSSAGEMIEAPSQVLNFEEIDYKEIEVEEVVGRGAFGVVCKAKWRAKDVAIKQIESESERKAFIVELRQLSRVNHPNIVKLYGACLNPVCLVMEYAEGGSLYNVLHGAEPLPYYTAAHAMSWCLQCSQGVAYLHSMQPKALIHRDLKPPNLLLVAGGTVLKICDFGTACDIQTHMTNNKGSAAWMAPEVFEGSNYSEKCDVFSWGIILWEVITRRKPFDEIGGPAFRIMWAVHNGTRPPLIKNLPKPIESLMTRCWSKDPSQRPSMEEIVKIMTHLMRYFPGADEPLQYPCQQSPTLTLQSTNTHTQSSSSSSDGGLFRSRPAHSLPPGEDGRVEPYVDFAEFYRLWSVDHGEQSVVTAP
Nature of the experiment: TAK1 biochemical assay (AlphaScreen, GST-MAP2K7 substrate). Conditions: TAK1-TAB1 fusion protein, GST-MAP2K7 substrate; read-out: mean TAK1 IC50 (Col. A). In general terms: In Alpha technology, singlet oxygen from a donor bead excites a nearby acceptor bead.
Regarding `CC(=O)N1CCC(n2cc(-c3cnc(N)c4oc(-c5cccc(S(=O)(=O)N(C)C)c5)cc34)cn2)CC1` [Example 134, 3-{4-[1-(1-acetylpiperidin-4-yl)-1H-pyrazol-4-yl]-7-aminofuro[2,3-c]pyridin-2-yl}-N,N-dimethylbenzenesulfonamide], the IC50 (commonly the midpoint of a concentration-inhibition curve) fell in the range of 1000 to 10000 nM. Take `CC(=O)N1CCC(n2cc(-c3cnc(N)c4oc(-c5ccc(Oc6ccccc6)cc5)cc34)cn2)CC1` [Example 159, 1-(4-{4-[7-amino-2-(4-phenoxyphenyl)furo[2,3-c]pyridin-4-yl]-1H-pyrazol-1-yl}piperidin-1-yl)ethanone]: the IC50 was greater than 10000 nM. In the case of `CC(=O)N1CCC(n2cc(-c3cnc(N)c4oc(-c5ccc(N)nc5)cc34)cn2)CC1` [Example 147, 1-(4-{4-[7-amino-2-(6-aminopyridin-3-yl)furo[2,3-c]pyridin-4-yl]-1H-pyrazol-1-yl}piperidin-1-yl)ethanone], the IC50 fell in the range of 100 to 1000 nM. For the molecule `Nc1ncc(-c2cnn(C3CCNCC3)c2)c2c(Cl)c(-c3ccc4[nH]ccc4c3)oc12` [Example 14, 3-chloro-2-(1H-indol-5-yl)-4-[1-(piperidin-4-yl)-1H-pyrazol-4-yl]furo[2,3-c]pyridin-7-amine hydrochloride], the IC50 was 1000 to 10000 nM.

Regarding `Nc1ncc(-c2cnn(C3CCNCC3)c2)c2cc(-c3cccc4nn[nH]c34)oc12` [Example 46, 2-(1H-benzotriazol-7-yl)-4-[1-(piperidin-4-yl)-1H-pyrazol-4-yl]furo[2,3-c]pyridine-7-amine], the IC50 lay in the range of 1000 to 10000 nM. For the molecule `Nc1ncc(-c2cnn([C@H]3CC[C@H](O)CC3)c2)c2cc(-c3ccc4cn[nH]c4c3)oc12` [Example 406, trans-4-{4-[7-amino-2-(1H-indazol-6-yl)furo[2,3-c]pyridin-4-yl]-1H-pyrazol-1-yl}cyclohexanol], the IC50 was in the range of 100 to 1000 nM. For the molecule `CC(=O)N1CCC(n2cc(-c3cnc(N)c4oc(-c5ccc6cn[nH]c6c5)cc34)cn2)CC1` [Example 99, 1-(4-{4-[7-amino-2-(1H-indazol-6-yl)furo[2,3-c]pyridin-4-yl]-1H-pyrazol-1-yl}piperidin-1-yl)ethanone], the IC50 fell in the range of 100 to 1000 nM.

Take `Nc1ccc(-c2cc3c(-c4cnn(C5CCNCC5)c4)cnc(N)c3o2)cn1` [Example 20, 2-(6-aminopyridin-3-yl)-4-[1-(piperidin-4-yl)-1H-pyrazol-4-yl]furo[2,3-c]pyridine-7-amine]: the IC50 was 1000 to 10000 nM.

With `COc1cccc2cc(C=CC(=O)N3CCC(n4cc(-c5cnc(N)c6oc(-c7csc8cnccc78)cc56)cn4)CC3)oc12` [Example 333, 1-{4-[4-(7-amino-2-thieno[2,3-c]pyridin-3-yl-furo[2,3-c]pyridin-4-yl)-pyrazol-1-yl]-piperidin-1-yl}-3-(7-methoxy-benzo-furan-2-yl)-propenone], the IC50 fell in the range of 100 to 1000 nM. `CCOC(=O)[C@H]1CC[C@H](n2cc(-c3cnc(N)c4oc(-c5csc6cnccc56)cc34)c(C)n2)CC1` [Example 298, 4-[4-(7-amino-2-thieno[2,3-c]pyridin-3-yl-furo[2,3-c]pyridin-4-yl)-3-methyl-pyrazol-1-yl]-cyclohexane carboxylic acid ethyl ester]: the IC50 was greater than 10000 nM.

As to `Nc1ncc(-c2cnn([C@H]3CC[C@H](O)CC3)c2)c2cc(-c3c(F)ccc4ncsc34)oc12` [Example 359, trans-4-{4-[7-amino-2-(6-fluoro-1,3-benzothiazol-7-yl)furo[2,3-c]pyridin-4-yl]-1H-pyrazol-1-yl}cyclohexanol], the half-maximal inhibitory concentration (IC50) was 1000 to 10000 nM. As for `Nc1ncc(-c2cnn(C3CCNCC3)c2)c2cc(-c3cccc4c3sc3ccccc34)oc12` [Example 37, 2-(dibenzo[b,d]thiophen-4-yl)-4-[1-(piperidin-4-yl)-1H-pyrazol-4-yl]furo[2,3-c]pyridine-7-amine], the IC50 was in the range of 100 to 1000 nM.

Regarding `Nc1ncc(-c2cnn(C3CCNCC3)c2)c2cc(-c3cccc4cccnc34)oc12` [Example 32, 4-[1-(piperidin-4-yl)-1H-pyrazol-4-yl]-2-(quinolin-8-yl)furo[2,3-c]pyridine-7-amine], the IC50 lay in the range of 1000 to 10000 nM. In the case of `CC(=O)N1CCC(n2cc(-c3cnc(N)c4oc(-c5cccc(OCc6ccc(Cl)cc6)c5)cc34)cn2)CC1` [Example 206, 1-{4-[4-(7-amino-2-{3-[(4-chlorobenzyl)oxy]phenyl}furo[2,3-c]pyridin-4-yl)-1H-pyrazol-1-yl]piperidin-1-yl}ethanone], the IC50 was greater than 10000 nM. `Nc1ncc(-c2cscn2)c2cc(-c3csc4cnccc34)oc12` [Example 396, 4-thiazol-4-yl-2-thieno[2,3-c]pyridin-3-yl-furo[2,3-c]pyridin-7-ylamine]: the IC50 was 1000 to 10000 nM. Then `CC(=O)N1CCC(n2cc(-c3cnc(N)c4oc(-c5ccc(C#N)cc5)cc34)cn2)CC1` [Example 170, 4-{4-[1-(1-acetylpiperidin-4-yl)-1H-pyrazol-4-yl]-7-aminofuro[2,3-c]pyridin-2-yl}benzonitrile], with 1000 to 10000 nM; and `Nc1ncc(-c2cnn(C3CCCCC3)c2)c2cc(-c3cccc4cnccc34)oc12` [Example 73, 4-(1-cyclohexyl-1H-pyrazol-4-yl)-2-(isoquinolin-5-yl)furo[2,3-c]pyridin-7-amine], with 1000 to 10000 nM.

Consider `CC(=O)N1CCC(n2cc(-c3cnc(N)c4oc(-c5coc6ccccc56)cc34)cn2)CC1` [Example 220, 1-(4-{4-[7-amino-2-(1-benzofuran-3-yl)furo[2,3-c]pyridin-4-yl]-1H-pyrazol-1-yl}piperidin-1-yl)ethanone bis(trifluoroacetate)], for which the IC50 was 1000 to 10000 nM. For `CC(=O)N1CCC(n2cc(-c3cnc(N)c4oc(-c5cccc(S(N)(=O)=O)c5)cc34)cn2)CC1` [Example 102, 3-{4-[1-(1-acetylpiperidin-4-yl)-1H-pyrazol-4-yl]-7-aminofuro[2,3-c]pyridin-2-yl}benzenesulfonamide], the half-maximal inhibitory concentration (IC50) fell in the range of 1000 to 10000 nM. Regarding `Nc1ncc(-c2cnn(CC(=O)O)c2)c2cc(-c3csc4cnccc34)oc12` [Example 296, [4-(7-amino-2-thieno[2,3-c]pyridin-3-yl-furo[2,3-c]pyridin-4-yl)-pyrazol-1-yl]-acetic acid], the IC50 lay in the range of 100 to 1000 nM. Then `CC(=O)N1CCC(n2cc(-c3cnc(N)c4oc(-c5ccc(N)cc5)cc34)cn2)CC1` [Example 183, 1-(4-{4-[7-amino-2-(4-aminophenyl)furo[2,3-c]pyridin-4-yl]-1H-pyrazol-1-yl}piperidin-1-yl)ethanone], with 1000 to 10000 nM; and `CC(=O)c1ccccc1-c1cc2c(-c3cnn(C4CCN(C(C)=O)CC4)c3)cnc(N)c2o1` [Example 193, 1-(4-{4-[2-(2-acetylphenyl)-7-aminofuro[2,3-c]pyridin-4-yl]-1H-pyrazol-1-yl}piperidin-1-yl)ethanone], with 1000 to 10000 nM.

As for `CC(=O)N1CCC(n2cc(-c3cnc(N)c4oc(-c5ccccc5CO)cc34)cn2)CC1` [Example 194, 1-[4-(4-{7-amino-2-[2-(hydroxymethyl)phenyl]furo[2,3-c]pyridin-4-yl}-1H-pyrazol-1-yl)piperidin-1-yl]ethanone], the half-maximal inhibitory concentration (IC50) was in the range of 100 to 1000 nM. Take `CC1(C)OCC(Cn2cc(-c3cnc(N)c4oc(-c5cccc6cnccc56)cc34)cn2)O1` (stereo not drawn) [Example 61, 4-{1-[(2,2-dimethyl-1,3-dioxolan-4-yl)methyl]-1H-pyrazol-4-yl}-2-(isoquinolin-5-yl)furo[2,3-c]pyridin-7-amine]: the IC50 lay in the range of 1000 to 10000 nM. Consider `Nc1ncc(-c2cnn(C3CCN(C(=O)Nc4cccc(Cc5ccccc5)c4)CC3)c2)c2cc(-c3cccc4cnsc34)oc12` [Example 339, 4-[4-(7-amino-2-benzo[d]isothiazol-7-yl-furo[2,3-c]pyridin-4-yl)-pyrazol-1-yl]-piperidine-1-carboxylic acid (3-benzyl-phenyl)-amide], for which the 50% inhibitory concentration (IC50) was 1000 to 10000 nM. On to `CC(=O)N1CCC(n2cc(-c3cnc(N)c4oc(-c5cccc(Oc6ccccc6)c5)cc34)cn2)CC1` [Example 186, 1-(4-{4-[7-amino-2-(3-phenoxyphenyl)furo[2,3-c]pyridin-4-yl]-1H-pyrazol-1-yl}piperidin-1-yl)ethanone], for which the half-maximal inhibitory concentration (IC50) was greater than 10000 nM.

In the case of `Cn1cnc2cc(-c3oc4c(N)ncc(-c5cnn(C6CCNCC6)c5)c4c3Cl)cnc21` [Example 15, 3-chloro-2-(3-methyl-3H-imidazo[4,5-b]pyridine-6-yl)-4-[1-(piperidin-4-yl)-1H-pyrazol-4-yl]furo[2,3-c]pyridin-7-amine hydrochloride], the IC50 was 1000 to 10000 nM.
